Data taken from patent publication US9115177B2, “Preparation method of micafungin sodium” (Shanghai Techwell Biopharmaceutical Co., Ltd., priority 2011, dated 2015).
Read-outs that look alike come from different tables or passages of the source. Marks after values point to notes of the source that are not given here. Numbered stars: 1 amine (or outer) side, 2 acyl side, 3 side chain; on linkers, the order of the positions; unused ones are H or OH. Bridge positions count the residues as written; N and C are the ends. Square brackets hold non-standard residues; d marks the D form. Peptide text beside a SMILES is read from it. * marks the point of attachment. hTyr(3S-OH,4S-OH,3'-OSO3H) = N[C@H](C(=O)O)[C@H](O)[C@@H](O)c1ccc(O)c(OS(=O)(=O)O)c1; Orn(4R-OH,5R-OH) = O=C([C@H](C[C@@H](O)[C@@H](O)N[*:3])N[*:1])[*:2]; Pro(3S-OH,4S-Me) = C[C@H]1CN[C@H](C(=O)O)[C@H]1O; X1 = CCCCCOc1ccc(-c2cc(-c3ccc(C(=O)*)cc3)no2)cc1; Gln(3R-OH) = NC(=O)C[C@@H](O)[C@H](N)C(=O)O; Hyp = O=C(O)[C@@H]1C[C@@H](O)CN1

Key:
[1] = conjugate acid of weak base; cited from earlier work
[2] = pKa values of compounds of benzene sulfonic acid; format: physicochemical
Method: Generally, there are two ways for preparing acid into sodium salt. One is exchange using cationic resin; the other is via adjusting pH value. Virtually, preparing sodium salt by adjusting pH value is a process of neutralization reaction between acid and base. It includes two types of reactions, i.e. the reaction between strong acid and strong base, and the reaction between […]. If strong base solution is added into strong acid solution for adjusting pH value, there is a sharp change in the pH value of the solution (the change of pH value is illustrated in FIG. 6), and the pH value will be instantly altered by 8. Therefore in the practical production, it is hard to control the pH value and a slightest mistake could lead to an overregulated pH value. In WO2004014879, a 0.1 mol/L NaOH solution was used to adjust pH value to 6-8 for obtaining formula II compound. It was actually a reaction between strong acid and strong base. […] Therefore, theoretically, the method using NaOH solution to adjust pH values for obtaining sodium salt is unsuitable for preparation of formula II compound.

[3] = pH adjustment of formula I compound with 0.1 mol/L NaOH solution, HPLC; format: physicochemical; conditions: pH adjusted with 0.1 mol/L NaOH solution added dropwise
Method: The inventors have repeated the method reported in WO2004014879 for multiple times and analyzed and validated the reported method from the point of view of local pH value.
The method for measuring HPLC purity of Formula I compound is shown as follows.
HPLC analytical column: YMC-ODS 250×4.6 mm, 5 μm
Mobile phase: acetonitrile: phosphate buffer (pH 3.0)=[…]
Column temperature: 35±5° C.
Dilution: phosphate buffer in water
Wave length detected: 210 nm
Volume of sample injection: 10 μl
Retention time of the main peak: approx. 18 min.
According to the purification process for micafungin in WO2004014879, ion exchange was applied to 0.5 g of compound of formula I by using 50 ml of cation exchange resin UBK510L. The product was sampled and analyzed. HPLC purity was determined as 99.54%. […] The product was sampled and analyzed. HPLC purity was determined as 98.01% (See FIG. 2). […] The produce was sampled and analyzed. HPLC purity was determined as 97.90%. […] The product was sampled and analyzed. HPLC purity was determined as 97.81%. […] The product was sampled and analyzed. HPLC purity was determined as 97.75%. […] The product was sampled and analyzed. HPLC purity was determined as 97.67%. […] The product was sampled and analyzed. HPLC purity was determined as 97.59%. […] The product was sampled and analyzed.

SMILES | pKa1 [1] | pKa2 [1] | other results
OB(O)O [boric acid] | 9.24 | 12.74^a | pKa3 [1]: 13.80^a
S [hydrosulfuric acid] | 6.88 | 14.15^a | –
O=C(O)CC(O)C(=O)O (centres unmarked) [malic acid] | 3.40^a | 5.13 | –
CCCCCOc1ccc(-c2cc(-c3ccc(C(=O)N[C@H]4C[C@@H](O)[C@@H](O)NC(=O)[C@@H]5[C@@H](O)[C@@H](C)CN5C(=O)[C@H]([C@H](O)CC(N)=O)NC(=O)[C@H]([C@H](O)[C@@H](O)c5ccc(O)c(OS(=O)(=O)O)c5)NC(=O)[C@@H]5C[C@@H](O)CN5C(=O)[C@H]([C@@H](C)O)NC4=O)cc3)no2)cc1 [micafungin, Micafungin] (X1-[Orn(4R-OH,5R-OH)]T[Hyp][hTyr(3S-OH,4S-OH,3'-OSO3H)][Gln(3R-OH)][Pro(3S-OH,4S-Me)]; lactam 1-C) | – | – | pKa [2]: < 1; degradation after pH adjustment (HPLC) [3]: obvious degradation; stability in solution (pH 4.0-6.0): more stable; stability in solution (pH 4.0-7.0): stability is good; stability in solution (pH 4.5-5.5): most stable; stability in solution (pH of solution adjusted to 7): no obvious degradation; stability in solution (solution with high pH value): poor stability
C/C=C/C=C/C(=O)O [sorbic acid] | 4.76 | – | –
O=S(O)O [sulfurous acid] | 1.90^a | 7.20 | –
